Experimental data: US6727232B2, “Nucleoside peptide antibiotics of AA-896” (Wyeth Holdings Corporation, priority 2001, dated 2004)
Values after ≈ are worked out from the molar mass of the structure shown.

Columns and labels:
Assay in all cases: Broth dilution MIC
Assay type in all cases: cell-based
E. coli GC 4559 = details: Escherichia coli, GC4559; E. coli GC 4559; Mueller-Hinton broth, 18 hours at 35° C.; read-out: Antimicrobial Activity (MIC)
Procedure, shortened: (§1)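 Mueller-Hinton broth, serial compound dilutions, bacterial inoculum; 18 h, 35° C. MIC = lowest concentration with no growth.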

E. faecalis GC 842 = details: Enterococcus faecalis, GC842; E. faecalis GC 842; Mueller-Hinton broth, 18 hours at 35° C.; read-out: Antimicrobial Activity (MIC)
Procedure, shortened: as §1

CNS GC 4537 = details: CNS GC 4537; Mueller-Hinton broth, 18 hours at 35° C.; read-out: Antimicrobial Activity (MIC)
Procedure, shortened: as §1

P. aeruginosa GC 4532 = details: Pseudomonas aeruginosa, GC4532; P. aeruginosa GC 4532; Mueller-Hinton broth, 18 hours at 35° C.; read-out: Antimicrobial Activity (MIC)
Procedure, shortened: as §1

P. aeruginosa GC 2214 = details: Pseudomonas aeruginosa, GC2214; P. aeruginosa GC 2214; Mueller-Hinton broth, 18 hours at 35° C.; read-out: Antimicrobial Activity (MIC)
Procedure, shortened: as §1

K. pneumoniae GC 4534 = details: Klebsiella pneumoniae, GC4534; K. pneumoniae GC 4534; Mueller-Hinton broth, 18 hours at 35° C.; read-out: Antimicrobial Activity (MIC)
Procedure, shortened: as §1

S. aureus GC 2216 = details: Staphylococcus aureus, GC2216; S. aureus GC 2216; Mueller-Hinton broth, 18 hours at 35° C.; read-out: Antimicrobial Activity (MIC)
Procedure, shortened: as §1

S. aureus GC 4536 = details: Staphylococcus aureus, GC4536; S. aureus GC 4536; Mueller-Hinton broth, 18 hours at 35° C.; read-out: Antimicrobial Activity (MIC)
Procedure, shortened: as §1

CNS GC 4538 = details: CNS GC 4538; Mueller-Hinton broth, 18 hours at 35° C.; read-out: Antimicrobial Activity (MIC)
Procedure, shortened: as §1

E. coli GC 4560 = details: Escherichia coli, GC4560, 18 h, read-out: Antimicrobial Activity (MIC)
Procedure, shortened: as §1

CNS GC 4547 = details: CNS GC 4547; Mueller-Hinton broth, 18 hours at 35° C.; read-out: Antimicrobial Activity (MIC)
Procedure, shortened: as §1

M. morganii GC 4531 = details: Morganella morganii, GC4531; M. morganii GC 4531; Mueller-Hinton broth, 18 hours at 35° C.; read-out: Antimicrobial Activity (MIC)
Procedure, shortened: as §1

E. cloacae GC 3783 = details: Enterobacter cloacae, GC3783; E. cloacae GC 3783; Mueller-Hinton broth, 18 hours at 35° C.; read-out: Antimicrobial Activity (MIC)
Procedure, shortened: as §1

E. coli GC 3226 = details: Escherichia coli, GC3226; E. coli GC 3226; Mueller-Hinton broth, 18 hours at 35° C.; read-out: Antimicrobial Activity (MIC)
Procedure, shortened: as §1

S. aureus GC 1131 = details: Staphylococcus aureus, GC1131; S. aureus GC 1131; Mueller-Hinton broth, 18 hours at 35° C.; read-out: Antimicrobial Activity (MIC)
Procedure, shortened: as §1

E. faecalis GC 4555 = details: Enterococcus faecalis, GC4555; E. faecalis GC 4555; Mueller-Hinton broth, 18 hours at 35° C.; read-out: Antimicrobial Activity (MIC)
Procedure, shortened: as §1

E. coli GC 2203 = details: Escherichia coli, GC2203; E. coli GC 2203; Mueller-Hinton broth, 18 hours at 35° C.; read-out: Antimicrobial Activity (MIC)
Procedure, shortened: as §1

P. rettgeri GC 4530 = details: Providencia rettgeri, GC4530; P. rettgeri GC 4530; Mueller-Hinton broth, 18 hours at 35° C.; read-out: Antimicrobial Activity (MIC)
Procedure, shortened: as §1

S. marcescens GC 4077 = details: Serratia marcescens, GC4077; S. marcescens GC 4077; Mueller-Hinton broth, 18 hours at 35° C.; read-out: Antimicrobial Activity (MIC)
Procedure, shortened: as §1

E. faecalis GC 2242 = details: Enterococcus faecalis, GC2242; E. faecalis GC 2242; Mueller-Hinton broth, 18 hours at 35° C.; read-out: Antimicrobial Activity (MIC)
Procedure, shortened: as §1

Structure (SMILES) | MIC (E. coli GC 4559) [µg/mL] | MIC (E. faecalis GC 842) [µg/mL] | MIC (CNS GC 4537) [µg/mL] | MIC (P. aeruginosa GC 4532) [µg/mL] | MIC (P. aeruginosa GC 2214) [µg/mL] | MIC (K. pneumoniae GC 4534) [µg/mL] | MIC (S. aureus GC 2216) [µg/mL] | MIC (S. aureus GC 4536) [µg/mL] | MIC (CNS GC 4538) [µg/mL] | MIC (E. coli GC 4560) [µg/mL] | MIC (CNS GC 4547) [µg/mL] | MIC (M. morganii GC 4531) [µg/mL] | MIC (E. cloacae GC 3783) [µg/mL] | MIC (E. coli GC 3226) [µg/mL] | MIC (S. aureus GC 1131) [µg/mL] | MIC (E. faecalis GC 4555) [µg/mL] | MIC (E. coli GC 2203) [µg/mL] | MIC (P. rettgeri GC 4530) [µg/mL] | MIC (S. marcescens GC 4077) [µg/mL] | MIC (E. faecalis GC 2242) [µg/mL]
CCCCCNC[C@H]1OC(O[C@H](C(C(=O)O)N(CCCCC)CCCNC(=O)C(NC(=O)C(NC(=O)NC(C(=O)O)C(C)C)C2CCNC(=N)N2)C(O)C(C)C)[C@H]2O[C@@H](n3ccc(=O)[nH]c3=O)[C@H](O)[C@@H]2O)[C@H](OC)[C@H]1O (stereo partly drawn) [Example 17, 16-[(R)-{(2S,3S,4R,5R)-5-[2,4-Dioxo-3,4-dihydro-1 (2H)-pyrimidinyl]-3,4-dihydroxytetrahydro-2-furanyl}({(3R,4S,5R)-4-hydroxy-3-methoxy-5-[(pentylamino)methyl]tetrahydro-2-furanyl}oxy)methyl]-9-(1-hydroxy-2-methylpropyl)-6-(2-iminohexahydro-4-pyrimidinyl)-2-isopropyl-4,7,10-trioxo-15-pentyl-3,5,8,11,15-pentaazaheptadecane-1,17-dioic Acid] | > 32 | > 32 | > 32 | > 32 | > 32 | > 32 | > 32 | > 32 | > 32 | 32 (≈ 29.5 µM) | 32 (≈ 29.5 µM) | > 32 | > 32 | > 32 | > 32 | > 32 | > 32 | > 32 | > 32 | 32 (≈ 29.5 µM)
CCCCCNC[C@H]1OC(O[C@H](C(NCCCNC(=O)C(NC(=O)C(NC(=O)NC(C(=O)O)C(C)C)C2CCNC(=N)N2)C(O)C(C)C)C(=O)O)[C@H]2O[C@@H](n3ccc(=O)[nH]c3=O)[C@H](O)[C@@H]2O)[C@H](OC)[C@H]1O (stereo partly drawn) [Example 18, 16-[(R)-{(2S,3S,4R,5R)-5-[2,4-Dioxo-3,4-dihydro-1 (2H)-pyrimidinyl]-3,4-dihydroxytetrahydro-2-furanyl}({(3R,4S,5R)-4-hydroxy-3-methoxy-5-[(pentylamino)methyl]tetrahydro-2-furanyl}oxy)methyl]-9-(1-hydroxy-2-methylpropyl)-6-(2-iminohexahydro-4-pyrimidinyl)-2-isopropyl-4,7,10-trioxo-3,5,8,11,15-pentaazaheptadecane-1,17-dioic Acid] | > 32 | > 32 | > 32 | > 32 | > 32 | > 32 | > 32 | > 32 | > 32 | > 32 | > 32 | > 32 | > 32 | > 32 | > 32 | > 32 | > 32 | > 32 | > 32 | > 32
CO[C@H]1C(O[C@H](C(NCCCNC(=O)C(NC(=O)C(NC(=O)NC(C(=O)O)C(C)C)C2CCNC(=N)N2)C(O)C(C)C)C(=O)O)[C@H]2O[C@@H](n3ccc(=O)[nH]c3=O)[C@H](O)[C@@H]2O)O[C@H](CNCc2ccc(-c3ccccc3)cc2)[C@@H]1O (stereo partly drawn) [Example 19A, 16-((R)-[((3R,4S,5R)-5-{[([1,1′-Biphenyl]-4-ylmethyl)amino]methyl}-4-hydroxy-3-methoxytetrahydro-2-furanyl)oxy]{(2S,3S,4R,5R)-5-[2,4-dioxo-3,4-dihydro-1 (2H)-pyrimidinyl]-3,4-dihydroxytetrahydro-2-furanyl}methyl)-9-(1-hydroxy-2-methylpropyl)-6-(2-iminohexahydro-4-pyrimidinyl)-2-isopropyl-4,7,10-trioxo-3,5,8,11,15-pentaazaheptadecane-1,17-dioic Acid] | > 32 | > 32 | > 32 | > 32 | > 32 | > 32 | > 32 | > 32 | > 32 | 16 (≈ 14.4 µM) | > 32 | > 32 | > 32 | > 32 | > 32 | > 32 | > 32 | > 32 | > 32 | > 32
CO[C@H]1C(O[C@H](C(C(=O)O)N(CCCNC(=O)C(NC(=O)C(NC(=O)NC(C(=O)O)C(C)C)C2CCNC(=N)N2)C(O)C(C)C)Cc2ccc(-c3ccccc3)cc2)[C@H]2O[C@@H](n3ccc(=O)[nH]c3=O)[C@H](O)[C@@H]2O)O[C@H](CNCc2ccc(-c3ccccc3)cc2)[C@@H]1O (stereo partly drawn) [Example 19B, 15-([1,1′-Biphenyl]-4-ylmethyl)-16-((R)-[((3R,4S,5R)-5-{[([1,1′-biphenyl]-4-ylmethyl)amino]methyl}-4-hydroxy-3-methoxytetrahydro-2-furanyl)oxy]{(2S,3S,4R,5R)-5-[2,4-dioxo-3,4-dihydro-1 (2H)-pyrimidinyl]-3,4-dihydroxytetrahydro-2-furanyl}methyl)-9-(1-hydroxy-2-methylpropyl)-6-(2-iminohexahydro-4-pyrimidinyl)-2-isopropyl-4,7,10-trioxo-3,5,8,11,15-pentaazaheptadecane-1,17-dioic Acid] | > 32 | > 32 | > 32 | > 32 | > 32 | > 32 | > 32 | > 32 | > 32 | > 32 | > 32 | > 32 | > 32 | > 32 | > 32 | > 32 | > 32 | > 32 | > 32 | > 32
CO[C@H]1C(O[C@H](C(NCCCNC(=O)C(NC(=O)C(NC(=O)NC(C(=O)O)C(C)C)C2CCNC(=N)N2)C(O)C(C)C)C(=O)O)[C@H]2O[C@@H](n3ccc(=O)[nH]c3=O)[C@H](O)[C@@H]2O)O[C@H](CNCc2ccccc2)[C@@H]1O (stereo partly drawn) [Example 20A, 16-((R)-({(3R,4S,5R)-5-[(Benzylamino)methyl]-4-hydroxy-3-methoxytetrahydro-2-furanyl}oxy){(2S,3S,4R,5R)-5-[2,4-dioxo-3,4-dihydro-1 (2H)-pyrimidinyl]-3,4-dihydroxytetrahydro-2-furanyl}methyl)-9-(1-hydroxy-2-methylpropyl)-6-(2-iminohexahydro-4-pyrimidinyl)-2-isopropyl-4,7,10-trioxo-3,5,8,11,15-pentaazaheptadecane-1,17-dioic acid] | > 32 | > 32 | > 32 | > 32 | > 32 | > 32 | > 32 | > 32 | > 32 | > 32 | > 32 | > 32 | > 32 | > 32 | > 32 | > 32 | > 32 | > 32 | > 32 | > 32
